# Literature values, collected in US11524044B2, “Strengthening and tumor eliminating traditional Chinese medicine composition, its preparation method and application” (The First Afiliated Hospital Of Guangzhou University Of …, priority 2020, dated 2022).
# Legend:
# [1] = test system: human colon cancer, liver cancer, gastric cancer, lung cancer and breast cancer related cells
# [2] = test system: ADP induced platelet aggregation
SMILES,cytotoxicity [1],inhibition of ADP induced platelet aggregation [2]
COc1cc(O)c(-c2c(O)cc(OC)c3c2ccc2cc(O)ccc23)c2c1-c1ccc(O)cc1CC2 [Cirrhopetalanthrin],moderate cytotoxicity,–
N#C[C@H](O[C@@H]1O[C@H](CO[C@@H]2O[C@H](CO)[C@@H](O)[C@H](O)[C@H]2O)[C@@H](O)[C@H](O)[C@H]1O)c1ccccc1 [amygdalin],–,inhibit ADP induced platelet aggregation in varying degrees
